# Results from PMC4257840 (Journal of Medicinal Chemistry, 2014).
# Legend:
# Assay type in all cases: biochemical
# [1] = biological target: T1, Human recombinant MMP-9 (Homo sapiens, UniProt P14780); experiment: Protease counter-screening: MMP-9
# T1 construct: host or cells: mammalian cells
# Protocol: (§1) Appendix 7. Protease Counter -Screening
# (§2) Protease counter-screeni ng was performed using the methods described below. Initial screening was conducted in duplicate using a single test substance concentration of 10 µ M .
# (§3) Additional assays were conducted in replicate for selected pairin gs of test s ubstance and enz yme in order to enable the determination of IC50 values using conventional procedures.
# (§4) Determination of K i was made using the Batch K i program (Biokin Ltd, Pullman, WA) to derive values from the Morrison equation: […]
# MMP-9: Human recombinant MMP-9 proenz yme ex pressed in mammalian cells was activated with APMA for 60 min at 37 °C. […] The amount of MCA-P LG formed was read spectrofluorimetricall y at 340 nm/400 nm.
# ADAM-17/TACE: Human recombinant ADAM-17 expressed in Sf21 insect cells was used as enz yme sour ce. […] T he amount of MCA-P LAQA formed w as read spectro fluorimetricall y at 340 nm/400 nm.
# Angiotensin converting enzyme: Test compound or vehicle was pre- incubated in modified HEPES buffer pH 7.5 for 15 min at 25 °C with 31 mU/mL angiotensin converting enz yme from rabbit lung. […] The amount of substrate remaining was read spectrophotometricall y at 340 nm and used to deri ve the extent of reaction and its inhibition. […]
# [2] = biological target: recombinant human Cat S (Homo sapiens, UniProt P25774); experiment: Cathepsin S inhibition assay; conditions: Table S1 counter-screening; read-out: Cathepsin S IC50
# Protocol: In all cases, for reactions involving inhibitors, the amount of reaction buffer was adjusted to 60 μL, the inhibitor added as a 10 μL aliquot, and incubated for 20 min with the enzyme prior to reaction start.
# [3] = biological target: human recombinant procathepsin K (activated) (Homo sapiens, UniProt P43235); experiment: Protease counter-screening: Cathepsin K
# Protocol: as §1, §2, §3, §4
# Where [E ] is the active enz yme concentration, Kiapp is the apparent inhibition const ant, v 0 is the control velocit y in the absence of inhibitors, vb is the background velocity, v is the initial reaction velocit y in the presence of inhibitor, and I is the inhibitor concentration.Thence:
# Where [S ] is the substrate concentration and KM is the Michealis constant.
# Caspase 1: Activity against human recombinant caspase 1 expressed in E. coli was tested using Ac-YVAD- AMC as the substrate. […]
# The amount of MCA-P LG formed was measured spectrofluorimetricall y at 340 nm/400 nm. […]
# AMC formation was read at 360 nm/465 nm.
# Cathepsin L2: Human recombinant cathepsin L2 expressed in NS0 cells was used as the enzyme source. […] Form ation of AMC was measured at 360 […]
# The amount of AMC formed was read spectrofluorimetricall y at 360 nm/465 nm. […]
# Chain of recombinant human Cat S (P25774 115-331): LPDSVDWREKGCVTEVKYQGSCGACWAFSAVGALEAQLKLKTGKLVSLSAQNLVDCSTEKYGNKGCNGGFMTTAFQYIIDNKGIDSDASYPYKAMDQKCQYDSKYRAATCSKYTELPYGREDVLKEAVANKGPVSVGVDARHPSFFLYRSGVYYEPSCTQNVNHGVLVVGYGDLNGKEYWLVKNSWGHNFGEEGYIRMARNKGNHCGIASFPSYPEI
# Chain of human recombinant procathepsin K (activated) (P43235 115-329): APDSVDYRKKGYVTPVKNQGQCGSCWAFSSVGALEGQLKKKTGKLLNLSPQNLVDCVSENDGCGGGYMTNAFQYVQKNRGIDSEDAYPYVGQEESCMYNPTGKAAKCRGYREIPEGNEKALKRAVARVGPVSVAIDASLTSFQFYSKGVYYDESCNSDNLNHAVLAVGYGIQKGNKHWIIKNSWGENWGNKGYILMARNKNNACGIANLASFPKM
# T1 sequence (P14780 107-707 limits assumed): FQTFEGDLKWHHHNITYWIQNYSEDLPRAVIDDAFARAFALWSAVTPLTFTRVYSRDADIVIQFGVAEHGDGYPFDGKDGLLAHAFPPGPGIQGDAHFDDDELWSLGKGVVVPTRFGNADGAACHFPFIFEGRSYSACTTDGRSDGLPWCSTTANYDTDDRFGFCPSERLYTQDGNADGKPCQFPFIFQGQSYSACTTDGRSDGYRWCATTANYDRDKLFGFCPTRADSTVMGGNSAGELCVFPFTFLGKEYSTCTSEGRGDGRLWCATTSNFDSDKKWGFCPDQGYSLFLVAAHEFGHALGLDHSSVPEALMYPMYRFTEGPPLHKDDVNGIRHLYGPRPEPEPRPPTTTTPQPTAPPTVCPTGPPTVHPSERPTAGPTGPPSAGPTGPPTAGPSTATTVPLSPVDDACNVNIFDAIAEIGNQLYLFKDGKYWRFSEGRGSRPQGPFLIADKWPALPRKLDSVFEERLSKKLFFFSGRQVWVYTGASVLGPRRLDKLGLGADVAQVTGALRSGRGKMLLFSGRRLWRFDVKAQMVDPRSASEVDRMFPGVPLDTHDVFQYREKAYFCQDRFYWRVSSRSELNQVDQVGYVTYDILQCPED
smiles,measurement,setting,value
"CC(C)[C@H](NC(=O)[C@H](C)NC(=O)[C@@H](NC(=O)c1ccccc1)C(C)(C)C)C(=O)C(=O)NCc1ccccc1 [Compound 38, N-{(S)-1-[(S)-1-((S)-1-Benzylaminooxalyl-2-methyl-propylcarbamoyl)-ethylcarbamoyl]-2,2-dimethyl-propyl}-benzamide]",inhibition at 10 µM,[1],5%
same,IC50,[2],0.17 µM
same,IC50,[3],2.92 µM
